# Experimental data published in the NIST ThermoML archive (doi:10.1021/je700260f).
# Numbers after ± are expanded uncertainties.
# Details: 313.15 K, Liquid, Vibrating tube method
smiles,measurement,setting,value
"FC(C(F)(F)F)C(F)(F)F [1,1,1,2,3,3,3-heptafluoropropane]",mass density,13017 kPa,1415.6 ± 1.6 kg/m3
same,mass density,13123 kPa,1416.2 ± 1.6 kg/m3
same,mass density,13155 kPa,1416.3 ± 1.6 kg/m3
same,mass density,13192 kPa,1416.5 ± 1.6 kg/m3
same,mass density,13220 kPa,1416.6 ± 1.6 kg/m3
same,mass density,13252 kPa,1417 ± 1.6 kg/m3
same,mass density,13275 kPa,1417.1 ± 1.6 kg/m3
same,mass density,13311 kPa,1417.3 ± 1.6 kg/m3
same,mass density,13338 kPa,1417.4 ± 1.6 kg/m3
same,mass density,13374 kPa,1417.6 ± 1.6 kg/m3
same,mass density,13406 kPa,1417.6 ± 1.6 kg/m3
same,mass density,13443 kPa,1418 ± 1.6 kg/m3
same,mass density,13476 kPa,1418.1 ± 1.6 kg/m3
same,mass density,13514 kPa,1418.3 ± 1.6 kg/m3
same,mass density,13538 kPa,1418.3 ± 1.6 kg/m3
same,mass density,13572 kPa,1418.6 ± 1.6 kg/m3
same,mass density,13615 kPa,1418.9 ± 1.6 kg/m3
same,mass density,13653 kPa,1419.1 ± 1.6 kg/m3
same,mass density,13686 kPa,1419.4 ± 1.6 kg/m3
same,mass density,13729 kPa,1419.6 ± 1.6 kg/m3
same,mass density,13757 kPa,1419.6 ± 1.6 kg/m3
same,mass density,13800 kPa,1419.9 ± 1.6 kg/m3
same,mass density,13833 kPa,1420.1 ± 1.6 kg/m3
same,mass density,13862 kPa,1420.3 ± 1.6 kg/m3
same,mass density,13891 kPa,1420.4 ± 1.6 kg/m3
same,mass density,13925 kPa,1420.6 ± 1.6 kg/m3
same,mass density,13959 kPa,1420.6 ± 1.6 kg/m3
same,mass density,13998 kPa,1420.9 ± 1.6 kg/m3
same,mass density,14038 kPa,1421.2 ± 1.6 kg/m3
same,mass density,14071 kPa,1421.4 ± 1.6 kg/m3
same,mass density,14109 kPa,1421.6 ± 1.6 kg/m3
same,mass density,14152 kPa,1421.9 ± 1.6 kg/m3
same,mass density,14190 kPa,1422 ± 1.6 kg/m3
same,mass density,14230 kPa,1422.4 ± 1.6 kg/m3
same,mass density,14386 kPa,1422.9 ± 1.6 kg/m3
same,mass density,14416 kPa,1423.1 ± 1.6 kg/m3
same,mass density,14459 kPa,1423.5 ± 1.6 kg/m3
same,mass density,14490 kPa,1423.7 ± 1.6 kg/m3
same,mass density,14534 kPa,1423.8 ± 1.6 kg/m3
same,mass density,14559 kPa,1423.9 ± 1.6 kg/m3
same,mass density,14599 kPa,1424.1 ± 1.6 kg/m3
same,mass density,14628 kPa,1424.3 ± 1.6 kg/m3
same,mass density,14673 kPa,1424.6 ± 1.6 kg/m3
same,mass density,14708 kPa,1424.9 ± 1.6 kg/m3
same,mass density,14737 kPa,1424.9 ± 1.6 kg/m3
same,mass density,14767 kPa,1425 ± 1.6 kg/m3
same,mass density,14796 kPa,1425.3 ± 1.6 kg/m3
same,mass density,14836 kPa,1425.4 ± 1.6 kg/m3
same,mass density,14865 kPa,1425.6 ± 1.6 kg/m3
same,mass density,14904 kPa,1425.8 ± 1.6 kg/m3
same,mass density,14933 kPa,1425.9 ± 1.6 kg/m3
same,mass density,14966 kPa,1426.1 ± 1.6 kg/m3
same,mass density,14996 kPa,1426.1 ± 1.6 kg/m3
same,mass density,15036 kPa,1426.5 ± 1.6 kg/m3
same,mass density,15063 kPa,1426.5 ± 1.6 kg/m3
same,mass density,15093 kPa,1426.7 ± 1.6 kg/m3
same,mass density,15124 kPa,1426.9 ± 1.6 kg/m3
same,mass density,15155 kPa,1427 ± 1.6 kg/m3
same,mass density,15184 kPa,1427.2 ± 1.6 kg/m3
same,mass density,15210 kPa,1427.4 ± 1.6 kg/m3
same,mass density,15246 kPa,1427.5 ± 1.6 kg/m3
same,mass density,15282 kPa,1427.7 ± 1.6 kg/m3
same,mass density,15313 kPa,1428.1 ± 1.6 kg/m3
same,mass density,15346 kPa,1427.9 ± 1.6 kg/m3
same,mass density,15372 kPa,1428.3 ± 1.6 kg/m3
same,mass density,15412 kPa,1428.5 ± 1.6 kg/m3
same,mass density,15443 kPa,1428.6 ± 1.6 kg/m3
same,mass density,15484 kPa,1428.7 ± 1.6 kg/m3
same,mass density,15512 kPa,1429 ± 1.6 kg/m3
same,mass density,15540 kPa,1429 ± 1.6 kg/m3
same,mass density,15570 kPa,1429.3 ± 1.6 kg/m3
same,mass density,15597 kPa,1429.5 ± 1.6 kg/m3
same,mass density,15629 kPa,1429.6 ± 1.6 kg/m3
same,mass density,15661 kPa,1429.7 ± 1.6 kg/m3
same,mass density,15703 kPa,1429.9 ± 1.6 kg/m3
same,mass density,15744 kPa,1430 ± 1.6 kg/m3
same,mass density,15771 kPa,1430.2 ± 1.6 kg/m3
same,mass density,15813 kPa,1430.6 ± 1.6 kg/m3
same,mass density,15845 kPa,1430.6 ± 1.6 kg/m3
same,mass density,15887 kPa,1430.9 ± 1.6 kg/m3
same,mass density,15924 kPa,1431.2 ± 1.6 kg/m3
same,mass density,15947 kPa,1431.2 ± 1.6 kg/m3
same,mass density,15988 kPa,1431.4 ± 1.6 kg/m3
same,mass density,16024 kPa,1431.6 ± 1.6 kg/m3
same,mass density,16051 kPa,1431.6 ± 1.6 kg/m3
same,mass density,16091 kPa,1431.9 ± 1.6 kg/m3
same,mass density,16136 kPa,1432.1 ± 1.6 kg/m3
same,mass density,16169 kPa,1432.2 ± 1.6 kg/m3
same,mass density,16230 kPa,1432.6 ± 1.6 kg/m3
same,mass density,16290 kPa,1432.9 ± 1.6 kg/m3
same,mass density,16326 kPa,1433 ± 1.6 kg/m3
same,mass density,16358 kPa,1433.3 ± 1.6 kg/m3
same,mass density,16395 kPa,1433.5 ± 1.6 kg/m3
same,mass density,16436 kPa,1433.6 ± 1.6 kg/m3
same,mass density,16468 kPa,1433.7 ± 1.6 kg/m3
same,mass density,16504 kPa,1434 ± 1.6 kg/m3
same,mass density,16582 kPa,1434.4 ± 1.6 kg/m3
same,mass density,16615 kPa,1434.6 ± 1.6 kg/m3
same,mass density,16652 kPa,1434.6 ± 1.6 kg/m3
same,mass density,16709 kPa,1435 ± 1.6 kg/m3
same,mass density,16737 kPa,1434.9 ± 1.6 kg/m3
same,mass density,16807 kPa,1435.4 ± 1.6 kg/m3
same,mass density,16839 kPa,1435.5 ± 1.6 kg/m3
same,mass density,16867 kPa,1435.7 ± 1.6 kg/m3
same,mass density,16905 kPa,1436.1 ± 1.6 kg/m3
same,mass density,16942 kPa,1436.1 ± 1.6 kg/m3
same,mass density,16974 kPa,1436.3 ± 1.6 kg/m3
same,mass density,17006 kPa,1436.5 ± 1.6 kg/m3
same,mass density,17039 kPa,1436.6 ± 1.6 kg/m3
same,mass density,17075 kPa,1436.8 ± 1.6 kg/m3
same,mass density,17104 kPa,1436.8 ± 1.6 kg/m3
same,mass density,17132 kPa,1437.2 ± 1.6 kg/m3
same,mass density,17165 kPa,1437.3 ± 1.6 kg/m3
same,mass density,17197 kPa,1437.3 ± 1.6 kg/m3
same,mass density,17235 kPa,1437.5 ± 1.6 kg/m3
same,mass density,17267 kPa,1437.6 ± 1.6 kg/m3
same,mass density,17294 kPa,1437.8 ± 1.6 kg/m3
same,mass density,17334 kPa,1438 ± 1.6 kg/m3
same,mass density,17360 kPa,1438.1 ± 1.6 kg/m3
same,mass density,17392 kPa,1438.3 ± 1.6 kg/m3
same,mass density,17427 kPa,1438.5 ± 1.6 kg/m3
same,mass density,17459 kPa,1438.7 ± 1.6 kg/m3
same,mass density,17496 kPa,1438.9 ± 1.6 kg/m3
same,mass density,17519 kPa,1439 ± 1.6 kg/m3
same,mass density,17551 kPa,1439.2 ± 1.6 kg/m3
same,mass density,17575 kPa,1439.3 ± 1.6 kg/m3
same,mass density,17616 kPa,1439.4 ± 1.6 kg/m3
same,mass density,17652 kPa,1439.6 ± 1.6 kg/m3
same,mass density,17684 kPa,1439.7 ± 1.6 kg/m3
same,mass density,17711 kPa,1440 ± 1.6 kg/m3
same,mass density,17743 kPa,1440 ± 1.6 kg/m3
same,mass density,17775 kPa,1440.1 ± 1.6 kg/m3
same,mass density,17811 kPa,1440.3 ± 1.6 kg/m3
same,mass density,17839 kPa,1440.4 ± 1.6 kg/m3
same,mass density,17877 kPa,1440.6 ± 1.6 kg/m3
same,mass density,17906 kPa,1440.8 ± 1.6 kg/m3
same,mass density,17943 kPa,1440.9 ± 1.6 kg/m3
same,mass density,17971 kPa,1441.1 ± 1.6 kg/m3
same,mass density,18008 kPa,1441.2 ± 1.6 kg/m3
same,mass density,18041 kPa,1441.4 ± 1.6 kg/m3
same,mass density,18077 kPa,1441.6 ± 1.6 kg/m3
same,mass density,18110 kPa,1441.7 ± 1.6 kg/m3
same,mass density,18143 kPa,1442 ± 1.6 kg/m3
same,mass density,18176 kPa,1442.1 ± 1.6 kg/m3
same,mass density,18204 kPa,1442.2 ± 1.6 kg/m3
same,mass density,18242 kPa,1442.3 ± 1.6 kg/m3
same,mass density,18277 kPa,1442.6 ± 1.6 kg/m3
same,mass density,18309 kPa,1442.7 ± 1.6 kg/m3
same,mass density,18337 kPa,1442.8 ± 1.6 kg/m3
same,mass density,18375 kPa,1443 ± 1.6 kg/m3
same,mass density,18403 kPa,1443.1 ± 1.6 kg/m3
same,mass density,18441 kPa,1443.2 ± 1.6 kg/m3
same,mass density,18469 kPa,1443.5 ± 1.6 kg/m3
same,mass density,18507 kPa,1443.6 ± 1.6 kg/m3
same,mass density,18691 kPa,1444.6 ± 1.6 kg/m3
same,mass density,18725 kPa,1444.7 ± 1.6 kg/m3
same,mass density,18755 kPa,1444.7 ± 1.6 kg/m3
same,mass density,18796 kPa,1444.9 ± 1.6 kg/m3
same,mass density,18830 kPa,1445 ± 1.6 kg/m3
same,mass density,18875 kPa,1445.3 ± 1.6 kg/m3
same,mass density,18905 kPa,1445.6 ± 1.6 kg/m3
same,mass density,18955 kPa,1445.7 ± 1.6 kg/m3
same,mass density,18985 kPa,1445.8 ± 1.6 kg/m3
same,mass density,19031 kPa,1445.9 ± 1.6 kg/m3
same,mass density,19066 kPa,1446.1 ± 1.6 kg/m3
same,mass density,19107 kPa,1446.4 ± 1.6 kg/m3
same,mass density,19137 kPa,1446.6 ± 1.6 kg/m3
same,mass density,19178 kPa,1446.8 ± 1.6 kg/m3
same,mass density,19218 kPa,1446.9 ± 1.6 kg/m3
same,mass density,19263 kPa,1447.2 ± 1.6 kg/m3
same,mass density,19293 kPa,1447.3 ± 1.6 kg/m3
same,mass density,19333 kPa,1447.5 ± 1.6 kg/m3
same,mass density,19378 kPa,1447.6 ± 1.6 kg/m3
same,mass density,19412 kPa,1447.8 ± 1.6 kg/m3
same,mass density,19441 kPa,1448 ± 1.6 kg/m3
same,mass density,19476 kPa,1448.1 ± 1.6 kg/m3
same,mass density,19522 kPa,1448.4 ± 1.6 kg/m3
same,mass density,19553 kPa,1448.5 ± 1.6 kg/m3
same,mass density,19589 kPa,1448.7 ± 1.6 kg/m3
same,mass density,19625 kPa,1448.9 ± 1.6 kg/m3
same,mass density,19669 kPa,1448.9 ± 1.6 kg/m3
same,mass density,19710 kPa,1449.1 ± 1.6 kg/m3
same,mass density,19750 kPa,1449.4 ± 1.6 kg/m3
same,mass density,19781 kPa,1449.5 ± 1.6 kg/m3
same,mass density,19822 kPa,1449.6 ± 1.6 kg/m3
same,mass density,19858 kPa,1449.8 ± 1.6 kg/m3
same,mass density,19893 kPa,1450 ± 1.6 kg/m3
same,mass density,19930 kPa,1450.1 ± 1.6 kg/m3
same,mass density,19961 kPa,1450.3 ± 1.6 kg/m3
same,mass density,19996 kPa,1450.4 ± 1.6 kg/m3
same,mass density,20037 kPa,1450.7 ± 1.6 kg/m3
same,mass density,20072 kPa,1450.8 ± 1.6 kg/m3
same,mass density,20108 kPa,1450.8 ± 1.6 kg/m3
same,mass density,20144 kPa,1451.1 ± 1.6 kg/m3
same,mass density,20180 kPa,1451.2 ± 1.6 kg/m3
same,mass density,20221 kPa,1451.4 ± 1.6 kg/m3
same,mass density,20257 kPa,1451.5 ± 1.6 kg/m3
same,mass density,20293 kPa,1451.8 ± 1.6 kg/m3
same,mass density,20324 kPa,1451.8 ± 1.6 kg/m3
same,mass density,20366 kPa,1452 ± 1.6 kg/m3
same,mass density,20397 kPa,1452.3 ± 1.6 kg/m3
same,mass density,20433 kPa,1452.4 ± 1.6 kg/m3
same,mass density,20464 kPa,1452.6 ± 1.6 kg/m3
same,mass density,20500 kPa,1452.8 ± 1.6 kg/m3
same,mass density,20530 kPa,1452.8 ± 1.6 kg/m3
